Literature values as cited in patent US5994297A, “Therapy for Staphylococcus aureus” (Eli Lilly and Company, priority 1998, dated 1999).

System: Staphylococcus aureus strain "Mu50"
Conditions: Staphylococcus aureus strain Mu50 (MRSA, reduced glycopeptide sensitivity); Hiramatsu et al., J. of Antimicrobial Chemotherapy, 1997, 40, 135-146

CN[C@H](CC(C)C)C(=O)N[C@H]1C(=O)N[C@@H](CC(N)=O)C(=O)N[C@H]2C(=O)N[C@H]3C(=O)N[C@H](C(=O)N[C@H](C(=O)O)c4cc(O)cc(O)c4-c4cc3ccc4O)[C@H](O)c3ccc(c(Cl)c3)Oc3cc2cc(c3O[C@@H]2O[C@H](CO)[C@@H](O)[C@H](O)[C@H]2O[C@H]2C[C@](C)(N)[C@H](O)[C@H](C)O2)Oc2ccc(cc2Cl)[C@H]1O [vancomycin]
vancomycin MIC: 8 µg/mL
